This note sets out measurements from EP2982682A1, “CHIMERIC PEPTIDE AND PHARMACEUTICAL COMPOSITION FOR TREATING ONCOLOGICAL DISEASES” (Obshestvo S Ogranichennoj Otvetstvennost`yu "Metamax", priority 2013, dated 2014).

One data set relates to pRb in MCF-7. Put plainly: Level of underphosphorylated pRb by flow cytometry. It counts as cell-based. The following applies: 10 and 40 µM. From the text:
(§1) Although the literature describes the retention of such peptides properties to inhibit a phosphorylating function for cyclin-dependent kinases, this was confirmed in cell extracts. We monitored changes in the level of pRB phosphorylation - molecular target of type D cyclin kinase against the background of the investigated peptides, including the sequences, having homology with p16INK4a, at the cellular level with the help of flow cytometry method.
(§2) Flow cytometry allows to render the cells, where the pRb product is in the "underphosphorylated" state. The fluorescently labeled antibodies interact with "underphosphorylated" pRb.
(§3) To determine the amount of "underphosphorylated" pRb, a series of experiments was performed, where the study peptide sequences were added to the cell cultures, synchronized with the help of depleted cell culture medium method (MCF-7, HCT-116), after removing the synchronization block, then the cells were sampled every two hours. A part of the cells from each plate was fixed to further define the phases of the cell cycle, and to determine the amount of the "underphosphorylated" pRb. Also a negative control was set in the form of synchronized cells samples, but without added peptide. It was shown that introduction of the peptide sequences into the cell culture inhibits the pRb phosphorylation and reduces its maximum level in the culture (Figure 19).
On the technique in general: In flow cytometry, cells or beads pass a laser one at a time.

A further data set deals with MCF-7. The experiment in a line: Cytostatic effect: cell cycle phases on DNA-histograms after synchronization in G0/G1. The following applies: 10 and 40 µM. It counts as cell-based. The protocol: (§4) Using cell lines MCF-7, HCT-116, A549 (lung adenocarcinoma) and SKOV (ovarian cancer) we studied the effect of the peptide sequences on the cells proliferative activity. The experiments involved synchronization of the cells in G0/G1-phase of the cells cycle using depleted culture medium. The cells in 24-well plate were held for 48 hours in the medium containing 0.5% PBS, then the synchronization block was removed via replacement of the medium with one containing 5% PBS and the study peptides in different concentrations. It was incubated for 24 hours, and then the cells were removed from the matrix using trypsin, washed in PSB, fixed in ethanol. Staining of samples, washing from ethanol in PBS using centrifugation, incubation with RNA-ase, staining with propidium iodide. Analysis was performed using flow cytometry, we evaluated the distribution of cells in the cell cycle phases on DNA-histograms using ModFit 3.0 software. For cells cultures MCF-7 and HCT-116 we studied the effect of 5 peptide sequences in concentrations of 10 and 40 µM. It was shown that the study sequences are able to decrease the proliferating activity of the dividing cells (Figure 9).

For data set [1], the system named is HCT116 (colon adenocarcinoma). Put plainly: Cytotoxic activity on proliferating cell lines, Annexin V/PI flow cytometry. Type of data set: cell-based, human. The conditions noted are these: 5-40 µM, 24 hours. As for the experimental part:
(§5) We studied the effect of peptide sequences D37K, F26K-1, F26K-2, W26K-1, W26K-2 on the cells of transplanted cell cultures MCF-7 (breast cancer), A549 (lung adenocarcinoma), SKOV (ovarian cancer) and HCT116 (colon adenocarcinoma).
(§6) When preparing for the experiment the cells cultures were placed in 24-well plates in amount of 1 * 10^4 cells per well, incubated for 48 hours at 37°C and 5% CO2, medium DMEM (PanEco, Russia), containing glutamine, gentamicin, 10% PBS. After such incubation the cell cultures formed loose mono-layer. Experimental set-up: culture medium was replaced with the medium containing the study peptides in the concentrations of 5 µM, 10 µM, 20 µM, 40 µM; in the control samples the medium contained DMSO 20 µL to determine the effect of solvent (peptides were dissolved in DMSO). Incubation time was 24 hours. Then the cells were carefully removed from the matrix using trypsin (cells in the wells with peptides were attached stronger than the control sample), the medium was removed via centrifugation at 3,000 rounds for 7 minutes, supernatant fluid was removed and the staining was performed using double mark Annexin V/PI. Analysis was performed using flow cytometer and evaluated the number of cells including Annexin V - apoptosis, the number of cells including propidium iodide - dead cells, the number of intact cells - live cells.

The test system of a further data set is SKOV (ovarian cancer). The experiment in a line: Cytostatic effect: cell cycle phases and hypodiploid peak on DNA-histograms after synchronization. It counts as cell-based. The following applies: 5-40 µM, 24 hours. As for the experimental part:
as §4
When studying the effect of the peptide sequences on SKOV cells culture the incubation was performed with the sequences F26K-1, F26K-2, W26K-1, and W26K-2. […]

Data set [2] has as its system MCF-7 (breast cancer). Put plainly: Combined effect with Taxol or 5-fluorouracil, Annexin and propidium iodide flow cytometry. Type of data set: cell-based. The following applies: 10, 20, 30 µM, 24 hours. The protocol: In cell culture MCF-7 (breast cancer) there was investigated the combined effect of DA, 5-fluorouracil and Taxol, and the sequences D37K and F26K-2 (in the cytotoxicity studies the sequence had the most pronounced effect on the MCF-7 culture). The cells were grown in 24-well plates to 70% of the monolayer, followed by replacement of the medium with the medium containing the target sequence and drugs in concentrations of 10, 20 and 30 µM. The incubation time was 24 hours. Analyzed cells, which entered into apoptosis, were detected using Annexin and propidium iodide staining, flow cytometry.

Another data set relates to Bcl-2 in HCT-116 cells. Put plainly: Level of Bcl-2 in cells, antibody staining and flow cytometry. Type of data set: cell-based, human. The following applies: 24 hours. As for the experimental part:
Example 4. Investigation of the peptide sequences effect on change in the level of Bcl-2 Monoclonal antibodies Anti Human Bcl-2 (Caltag Laboratories, USA) were used to estimated change in the level of Bcl-2 in HCT-116 cells when incubated with the study peptide sequence. The cells were transferred to a 24-well plate at 1 x 10^4 per well, grown for 48 hours under normal conditions (medium DMEM, 10%), then synchronized using the depleted medium containing 0.5% PBS for 48 hours. Upon removing the synchronizing block the medium containing 10% PBS was added to the cells, and the peptide sequences were studied at concentrations of 10 and 40 µM. Incubation with the peptides was performed for 24 hours, then the culture was removed with the help of trypsin, fixed for one hour with PBS containing 1% formaldehyde, and then fixed with ethanol. The staining and the analysis were performed according to the antibodies manufacturer's instructions. […] It is thereby shown that the apoptosis induced by introduction of the peptide sequences into the culture medium is explained by influence of the peptides on specific molecular processes of the cell.

For a further data set, the system named is HCT-116. The experiment in a line: Cytostatic effect: cell cycle phases on DNA-histograms after synchronization in G0/G1. Type of data set: cell-based, human. The protocol: as §4
A further data set has as its system pRb in HCT-116. The experiment in a line: Level of underphosphorylated pRb by flow cytometry. It counts as cell-based, human.
Source text: as §1, §2, §3
As it is seen in Figure 19, the level of "underphosphorylated" pRb begins to grow after removal of the synchronization block in the control samples without addition of the peptide, and to a certain point (4 or 6 hours of incubation), depending on the cell line, it reaches a maximum and then begins to decline. In the samples with peptides the level of "underphosphorylated" pRb begins to increase later and reaches its maximum after 12-18 hours of incubation, the delay in reaching the maximum level of pRb depends on concentration of the peptide sequences. […] We analyzed the level of "underphosphorylated" pRb every two hours; the maximum incubation time was 24 hours.

The test system of data set [3] is MCF-7 (breast cancer). The experiment in a line: Cytotoxic activity on proliferating cell lines, Annexin V/PI flow cytometry. It counts as cell-based. The conditions noted are these: 5-40 µM, 24 hours. The protocol: as §5, §6
The subject of a further data set is pRb in SKOV cell line. Put plainly: Level of underphosphorylated pRb by flow cytometry. Type of data set: cell-based. The following applies: 10 and 40 µM. The protocol: as §2
In the study of the "underphosphorylated" pRb level using SKOV cell line, the delay effect in formation of "underphosphorylated" pRb was lower than for cultures MCF-7 and HCT-116, although this cell line was previously shown to have the proliferation delay effect during incubation of the cells with the study peptide sequences. […] Obvious "underphosphorylated" pRb formation delay effect compared to the control sample, however, in the case of SKOV cell line, was somewhat lower than that of cultures of MCF-7 and HCT-116.

Square brackets hold non-standard residues; d marks the D form. Ends that are not written are not given here. Ahx = NCCCCCC(=O)O

On to H-FLDAILLI[Ahx] [F26K-2], for which, in the data set with pRb in MCF-7, the “delay in the formation of "underphosphorylated" pRb” value is “greatest delay”. Moreover, the antiproliferative effect result with MCF-7 is given as “most clear antiproliferative effect”; with HCT-116 (10 and 40 µM) it was “most clear antiproliferative effect”. In addition, the “apoptosis level (Annexin V)” value (in [1]; in the data set with MCF-7 (breast cancer) [3]) was “more pronounced pro-apoptosis effect” in each case. Besides, the “antiproliferative effect (cells in G0/G1 and S+G2/M)” value in the data set with SKOV (ovarian cancer) is on record as “caused the delay of proliferation”. In addition, the “combined use with 5-fluorouracil, cytotoxic effect” value in the data set with MCF-7 (breast cancer) [2] is “linear amplification”. Also, in the data set with MCF-7 (breast cancer) [2], the “combined use with Taxol, level of apoptosis” value was “summation of cytotoxic effects”. In addition, the “inhibition of the expression of Bcl-2 protein” value with Bcl-2 in HCT-116 cells (10 and 40 µM) was “strongest inhibition”. In the data set on Bcl-2 in HCT-116 cells (40 µM), the “decrease of the level of Bcl-2-positive cells” value was “over 15%”. The “delay in cells leaving the rest phase” value with HCT-116 (synchronized culture, 40 µM (Fig. 10)) lay within 8 to 12 h. In the data set with pRb in HCT-116 (10 and 40 µM), the “delay in formation of "underphosphorylated" pRb” value is recorded as “greatest effect of the delay”. The results for the “incubation time of maximum level of "underphosphorylated" pRb” value in the data set with pRb in HCT-116 (peptide 10 µM) and in the data set with pRb in HCT-116 (peptide 40 µM) were 16 hours and 20 hours, respectively. In addition, the “delay in formation of "underphosphorylated" pRb as compared to the control” value in the data set on pRb in SKOV cell line is on record as 4-10 hours.
